Assay results published in paper PMC7591920, “A protein tertiary structure mimetic modulator of the Hippo signalling pathway” (Nature Communications, 2020).
Bridge positions count the residues as written; N and C are the ends. Square brackets hold non-standard residues; d marks the D form. Peptide text beside a SMILES is read from it. AEEA = NCCOCCOCC(=O)O

Legend:
GST-hTEAD1 / biotin-VGL4 = molecular target: T1, GST-hTEAD1 / biotin-VGL4 (Homo sapiens, UniProt P28347); assay: Competition pull-down of GST-hTEAD1 with immobilised biotin-VGL4; type: biochemical; details: GST-hTEAD1 1 µM
T1 construct: CDNA of hTEAD1(209–426) fused with an N-terminal GST tag; made in house; host or cells: Escherichia coli BL21 DE3 RIL(K+); bait peptide synthetic
Description: Beads were then extensively washed with the incubation buffer followed by protein elution after boiling the beads at 95 °C for 10 min in 25 µL of SDS loading buffer. SDS PAGE was performed using standard methods and the gel was visualized after Coomassie staining with a Li-COR Fc Imager.

RKO cells [1] = assay: Total drug content in RKO cells by UPLC-MS; details: for Total drug content, Measured Concentration: RIPA total lysis, diluted lysate; for Total drug content, Measured Concentration / Total drug content / Measured Conc: UPLC-MS; for Total drug content, Measured Concentration / Total drug content: n = 2; for Total drug content: total lysis
Description: (§2) Peptides were incubated in RKO cells (ATCC, #CRL-2577) as follows: Experiment 1: RKO cells were incubated in 25 µM compound for 90 min and 24 h. Experiment 2: RKO cells were incubated in 25 µM for 30 min or 72 h. Following peptide incubation, the cells were washed twice with PBS, trypsinized and pelleted. The pellets were lysed in RIPA buffer (Perkin Elmer) for total lysis, or CelLytic NuCLEAR Extraction Kit (SIGMA) for subcellular fractionation. Total protein quantification BCA (Pierce) was performed prior to MS analysis to normalize sample data. Total and fractionated cell lysates were analysed by quantitative UPLC-MS utilizing a Waters Xevo TQ-XS (WBA0259) and an Acquity UPLC system from Waters consisting of Sample Manager (M16UFL953M), Acquity PDA (F17UPD457A), Column Oven (E17CMP703G) and Binary Solvent Manager (E17BUR621G). […] Chromatograms of the samples were treated similarly, and by linear regression (1/x) an in-cell concentration was established in the re-suspended cell lysate using the Waters MassLynx TargetLynx^TM product.

[2] = tested on: primary juvenile (P5–P6) rat cardiomyocytes; assay: Cell cycle activity assay (Ki67/αActinin) in juvenile rat cardiomyocytes; type: cell-based; details: for Dose-dependent cell cycle stimulation, MEAN: 4-day treatment, relative to DMSO (100), mean of n = 3
Description: One day after seeding, the cells were treated with test compounds of interest. Treatments were applied with an ECHO 520 acoustic dispenser (Labcyte) and medium was added to the wells. Four days after treatment, the cells were fixed with 4% formaldehyde (Roth) and immunostained in 0.2% Triton-X100 (Roth) in PBS (Gibco) supplemented with 5% FBS. […] Samples were then imaged and analysed on an ImageXpress XL automated microscope (Molecular Devices). Data are depicted as means ± SEM.

GST-hTEAD1 = molecular target: T2, GST-hTEAD1 (Homo sapiens, UniProt P28347); assay: SPR binding to immobilised GST-hTEAD1; details: GST-hTEAD1 amine-coupled on CM5, multi-cycle, steady-state fit 1:1 model, 10 mM HEPES 150 mM NaCl 0.05% Tween-20 pH 7.4, 0.3% DMSO, 20 °C, Fig. 1 values n = 1 replicate
T2 construct: CDNA of hTEAD1(209–426) fused with an N-terminal GST tag; made in house; host or cells: Escherichia coli BL21 DE3 RIL(K+)
Method in brief: (§1)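 Proteins amine-coupled (NHS/EDC) to CM5 chips from 10 mM MES pH 6.4; running buffer 10 mM HEPES, 150 mM NaCl, 0.05% Tween-20, pH 7.4, 20 °C, 30 µL min^−1. Multi-cycle kinetics: seven threefold analyte dilutions from 30 µM, 45 s contact, 6-min dissociation, reference-surface subtracted.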

mTEAD4 = molecular target: T3, mTEAD4 (Mus musculus, UniProt Q62296); assay: SPR binding to immobilised mTEAD4; details: mTEAD4 amine-coupled on CM5, multi-cycle, steady-state fit 1:1 model, 10 mM HEPES 150 mM NaCl 0.05% Tween-20 pH 7.4, 0.3% DMSO, 20 °C, Fig. 1 values n = 1 replicate
T3 construct: Mouse TEAD4(210–427) cDNA fused with a 6x His-tag and a 3C protease cleavage site; 6x His-tag; 3C protease cleavage site; made in house; host or cells: E. coli BL21 DE3 RIL(K+)
Method in brief: as §1

RKO cells [3] = assay: Wound closure assay; type: cell-based
Description: Ca. 100,000 RKO cells were seeded per well in a transparent ImageLock 96-well plate (#4379, Essen Bioscience) and treated with the samples the next day. Wound Healing Assay was performed using the IncuCyte® ZOOM system and the WoundMaker™ device (both Essen Bioscience). The scratch was performed according to manufacturer’s protocol and images were acquired every 2 h. Image-based analysis of wound closure was conducted using the IncuCyte ZOOM 2016B software (Essen Bioscience). Confluency within the wound area was normalized to the confluency at the time of scratch preparation and plotted using GraphPad Prism 6.

rat heart cells = assay: Cell toxicity assessment on rat heart cells in culture; details: c(peptide) = 10 µM
Description: whole heart cells monitored by fluorescence microscopy after 90 minutes treatments (scale bar: 25 µm), number of […]
4E as well as control compounds (SB203580, CHIR99021) on rat heart cells in culture (c(peptide) = 10 µM). Number of independent biological replicates: n = 6, error bars = SEM. […]
cytometry analysis of live cells after 90 min incubation at 5 µM: Representative histogram plot, (-) DMSO control). Source data are provided as a Source Data file.
(1 picture or pasted object on this page, not shown here)

RKO cells [4] = assay: Sub-cellular (cytoplasmic, nuclear) peptide concentration in RKO cells by UPLC-MS; details: for Sub-cellular drug content, Cytoplasm / Sub-cellular drug content, Cytoplasm, Measured concentration / Sub-cellular drug content, Nuclear / Sub-cellular drug content, Nuclear, Measured concentration: n = 2
Description: as §2

[5] = 25 µM, authors' response in peer review file
[6] = 25 µM compound, 90 minutes, fractionation, UPLC-MS
[7] = 25 µM compound, 24 hours, fractionation, UPLC-MS

T1 sequence (P28347 209-426): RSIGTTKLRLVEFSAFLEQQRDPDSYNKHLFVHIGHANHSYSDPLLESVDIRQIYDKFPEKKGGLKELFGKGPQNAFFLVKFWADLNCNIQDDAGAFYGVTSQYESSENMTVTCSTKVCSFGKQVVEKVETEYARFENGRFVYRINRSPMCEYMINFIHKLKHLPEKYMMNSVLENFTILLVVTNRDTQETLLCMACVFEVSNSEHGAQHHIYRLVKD
T2 sequence (P28347 209-426): as above
T3 sequence (Q62296 210-427): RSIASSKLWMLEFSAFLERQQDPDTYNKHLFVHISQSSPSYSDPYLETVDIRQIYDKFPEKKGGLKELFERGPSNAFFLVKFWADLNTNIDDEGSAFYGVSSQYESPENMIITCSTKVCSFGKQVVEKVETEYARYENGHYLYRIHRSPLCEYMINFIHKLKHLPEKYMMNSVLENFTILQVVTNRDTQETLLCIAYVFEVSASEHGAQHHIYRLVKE

CC[C@H](C)[C@@H]1NC(=O)[C@H](CCC(N)=O)NC(=O)[C@H](CC(C)C)NC(=O)[C@H](Cc2c[nH]c3ccccc23)NC(=O)[C@H]([C@@H](C)O)NC(=O)[C@H](CC(=O)O)NC(=O)CNC(=O)[C@H](CC(C)C)NC(=O)[C@H](C)NC(=O)[C@H](CCCCN)NC(=O)[C@H](C)NC(=O)[C@H](Cc2ccccc2)NC(=O)[C@H](Cc2c[nH]cn2)NC(=O)[C@H](CC(=O)O)NC(=O)[C@@H](NC(=O)[C@@H](NC(=O)[C@H](CO)NC(=O)COCCOCCNC(=O)[C@H](CCC(N)=O)NC(=O)[C@@H]2CCCN2C(=O)[C@H](CCCNC(=N)N)NC(=O)[C@H](CCCNC(=N)N)NC(=O)[C@H](CCCNC(=N)N)NC(=O)[C@H](CCC(N)=O)NC(=O)[C@H](CCCNC(=N)N)NC(=O)[C@H](CCCNC(=N)N)NC(=O)[C@H](CCCCN)NC(=O)[C@H](CCCCN)NC(=O)[C@H](CCCNC(=N)N)NC(=O)CNC(C)=O)C(C)C)CCC(=O)NCCCC[C@@H](C(=O)N[C@@H](C)C(=O)N[C@@H](C)C(N)=O)NC1=O [compound 7] (Ac-GRKKRRQRRRPQ[AEEA]SVEDHFAKALGDTWLQIKAA-NH2; lactam 16-31)
required concentration for VGL4 competition in the pull-down assay (GST-hTEAD1 / biotin-VGL4; immobilised biotin-VGL4, 2.5 h): ca. 100 µM | Competition with TEAD–VGL4 complex formation (pull-down) (GST-hTEAD1 / biotin-VGL4; peptide 50 and 200 µM, biotin-VGL4 on streptavidin beads, 2.5 h, SDS-PAGE, n = 1): compete with TEAD–VGL4 complex formation | Total drug content, Measured Concentration (RKO cells [1]; 25 µM compound, 90 minutes): 122.09 ± 7.277 nM | Total drug content (RKO cells [1]; 25 µM compound, 90 minutes): 0.1831 ± 0.01091 nmol | Total drug content, Measured Concentration (RKO cells [1]; 25 µM compound, 24 hours): 91.646 ± 61.816 nM | Total drug content (RKO cells [1]; 25 µM compound, 24 hours): 0.1375 ± 0.09272 nmol | loss of total concentration between 90 min and 24 h incubation (RKO cells [1]; [5]): 30% | Measured Conc (RKO cells [1]; total drug content, 25 µM compound, 90 minutes, dilution factor 10, replicate 1): 114.813 nM | Measured Conc (RKO cells [1]; total drug content, 25 µM compound, 90 minutes, dilution factor 10, replicate 2): 129.367 nM | pMol/mg of protein, Mean (RKO cells [1]; total drug content, 25 µM compound, 90 minutes, mean of 2 replicates): 183.0 pMol/mg of protein | Measured Conc (RKO cells [1]; total drug content, 25 µM compound, 24 hours, dilution factor 10, replicate 1): 153.462 nM | Measured Conc (RKO cells [1]; total drug content, 25 µM compound, 24 hours, dilution factor 10, replicate 2): 29.83 nM | pMol/mg, Mean (RKO cells [1]; total drug content, 25 µM compound, 24 hours, mean of 2 replicates): 127.1 pMol/mg | Dose-dependent cell cycle stimulation, MEAN ([2]; 1 mM (so in the source)): 106.813 | Dose-dependent cell cycle stimulation, MEAN ([2]; 5 mM (so in the source)): 131.729 | Dose-dependent cell cycle stimulation, MEAN ([2]; 10 mM (so in the source)): 172.672 | Effect on cardiomyocyte cell cycle activity ([2]; P5–P6 rat heart cells, 4-days incubation, Ki67/αActinin double-positive cells): stimulates cell cycle activity to the same extent as positive controls | Cell cycle activity, MEAN ([2]; c = 10 µM, 4 days, relative to DMSO-treated cells (100), mean of N = 6): 148.037 | Kd (GST-hTEAD1): 830 ± 780 nM | Kd (mTEAD4): 1500 ± 1000 nM | Effect on wound closure (RKO cells [3]; c = 30 µM, 48 h treatment): considerably increased wound closure | Wound closure (%) (RKO cells [3]; dose-dependent, 1 µM peptide 7, mean of n = 3): 53.07% | Wound closure (%) (RKO cells [3]; dose-dependent, 5 µM peptide 7, mean of n = 3): 61.51% | Wound closure (%) (RKO cells [3]; dose-dependent, 10 µM peptide 7, mean of n = 3): 67.72% | Wound closure (%) (RKO cells [3]; dose-dependent, 30 µM peptide 7, mean of n = 3): 76.06% | Wound closure (%) (RKO cells [3]; time-dependent, 12 hours, mean of n = 3): 26.59% | Wound closure (%) (RKO cells [3]; time-dependent, 24 hours, mean of n = 3): 49.56% | Wound closure (%) (RKO cells [3]; time-dependent, 36 hours, mean of n = 3): 65.47% | Wound closure (%) (RKO cells [3]; time-dependent, 48 hours, mean of n = 3): 75.27% | Total cell number (% DMSO control) (rat heart cells; raw data replicate 1): 121.364 % DMSO control | Total cell number (% DMSO control) (rat heart cells; raw data replicate 2): 169.336 % DMSO control | Total cell number (% DMSO control) (rat heart cells; raw data replicate 3): 227.316 % DMSO control | Total cell number (% DMSO control) (rat heart cells; raw data replicate 4): 141.087 % DMSO control | Total cell number (% DMSO control) (rat heart cells; raw data replicate 5): 122.138 % DMSO control | Total cell number (% DMSO control) (rat heart cells; raw data replicate 6): 106.984 % DMSO control | Sub-cellular drug content, Cytoplasm (RKO cells [4]; [6]): 0.07968 nmol | Sub-cellular drug content, Cytoplasm, Measured concentration (RKO cells [4]; [6]): 265.5865 nM | Sub-cellular drug content, Nuclear (RKO cells [4]; [6]): 0.1853 nmol | Sub-cellular drug content, Nuclear, Measured concentration (RKO cells [4]; [6]): 123.5385 ± 6.5745 nM | Sub-cellular drug content, Cytoplasm (RKO cells [4]; [7]): 0.04677 nmol | Sub-cellular drug content, Cytoplasm, Measured concentration (RKO cells [4]; [7]): 155.914 ± 40.331 nM | Sub-cellular drug content, Nuclear (RKO cells [4]; [7]): 0.06065 nmol | Sub-cellular drug content, Nuclear, Measured concentration (RKO cells [4]; [7]): 202.161 ± 23.082 nM | loss of cytosolic concentration between 90 min and 24 h incubation (RKO cells [4]; [5]): 47% | pMol/mg (RKO cells [4]; Cytoplasm, 25 µM compound, 90 minutes (1.5 hrs), replicate 1): 104.1 pMol/mg | pMol/mg (RKO cells [4]; Cytoplasm, 25 µM compound, 90 minutes (1.5 hrs), replicate 2): 74.3 pMol/mg | pMol/mg (RKO cells [4]; Cytoplasm, 25 µM compound, 24 hours, replicate 1): 73.3 pMol/mg | pMol/mg, Mean (RKO cells [4]; Nuclear, 25 µM compound, 90 minutes (1.5 hrs), mean of 2 replicates): 231.15 pMol/mg | pMol/mg (RKO cells [4]; Nuclear, 25 µM compound, 24 hours, replicate 1): 336.5 pMol/mg | Cytoplasmic concentration of peptide (RKO cells [4]; cytoplasmic fraction, UPLC-MS, mean of n = 2): 89.2 pMols/mg of protein | Nuclear concentration of peptide (RKO cells [4]; nuclear fraction, UPLC-MS, mean of n = 2): 209 pMols/mg of protein | Detection in cytoplasmic and nuclear fractions (RKO cells [4]; unlabelled peptide 25 µM, 90 min and 24 h, fractionation, UPLC-MS): found in both compartments
